Test results reported in US6440989B2, “Phenyl-substituted tricyclic inhibitors of farnesyl-protein transferase” (Schering Corporation, priority 1997, dated 2002).

Target: T1, partially purified rat brain farnesyl protein transferase (FPT) (Rattus norvegicus, UniProt Q02293+Q04631)
T1 construct: partially purified rat brain farnesyl protein transferase (FPT); from tissue; host or cells: rat brain
Assay: In vitro enzyme assay: inhibition of Ras-CVLS farnesylation by farnesyl protein transferase
Format: biochemical
Procedure: 1. In vitro enzyme assays: FPT IC50 (inhibition of farnesyl protein transferase, in vitro enzyme assay) are determined by the methods disclosed in WO/10515 or WO 95110516.

Cc1cc(Br)c2c(c1)CCc1cc(Br)cnc1C2N1CCN(C(=O)Cc2cc[n+]([O-])cc2)CC1 (racemic) [Example 21]
IC50: 4.8 nM

Cc1cc(Br)c2c(c1)CCc1cc(Br)cnc1C2C1CCN(C(=O)Cc2cc[n+]([O-])cc2)CC1 (single isomer, unassigned; (-)) [Example 34, (−) 4-(3-Bromo-6,11-dihydro-10-bromo-8-methyl-5H-benzo[5,6]cyclohepta[1,2-b]pyridin-11-yl)-1-(4-pyridinylacetyl)piperidine N1-Oxide]
IC50: > 16 nM

Cc1cc(O)c2c(c1)CCc1cc(Br)cnc1C2=C1CCN(C(=O)Cc2cc[n+]([O-])cc2)CC1 [Example 6, (+,−)-4-(3-Bromo-10-hydroxy-8-methyl--5,6-dihydro-11H-benzo[5,6]cyclohepta[1,2-b]pyridin-11-ylidene)-1-(4-pyridinylacetyl)piperidine N1-oxide]
IC50: 45 nM

Cc1ccc2c(c1)CCc1cc(Br)cnc1C2N1CCN(C(=O)Cc2cc[n+]([O-])cc2)CC1 (racemic) [Example 16, (+,−)-1-(3-Bromo-8-methyl-6,11-dihydro-5H-benzo[5,6]cyclohepta[1,2-b]pyridin-11-yl)-4-(4-pyridinylacetyl)piperazine N4-oxide]
IC50: 64 nM

COc1cc(C)cc2c1C(C1CCN(C(=O)Cc3cc[n+]([O-])cc3)CC1)c1ncc(Br)cc1CC2 (racemic) [Example 3, (+,−)-4-(3-Bromo-10-methoxy-8-methyl-6,11-dihydro-5H-benzo[5,6]cyclohepta[1,2-b]pyridin-11-yl)-1-(4-pyridinylacetyl)piperidine N1-oxide]
IC50: 3.2 nM

COc1cc(C)cc2c1C(N1CCN(C(=O)Cc3cc[n+]([O-])cc3)CC1)c1ncc(Br)cc1CC2 (single isomer, unassigned; (-)) [Example 19, (−)-1-(3-Bromo-10-methoxy-8-methyl-6,11-dihydro-5H-benzo[5,6]cyclohepta[1,2-b]pyridin-11-yl)-4-(4-pyridinylacetyl)piperazine N4-oxide, (−) enantiomer]
IC50: 4.2 nM

COc1cc(C)cc2c1C(=C1CCN(C(=O)Cc3cc[n+]([O-])cc3)CC1)c1ncc(Br)cc1CC2 [Example 8, (+,−)-4-(3-bromo-10-methoxy-8-methyl-5,6-dihydro-11H-benzo[5,6]cyclohepta[1,2-b]pyridin-11-ylidene)-1-(4-pyridinylacetyl)piperidine N1-oxide]
IC50: 30 nM

Cc1cc(Br)c2c(c1)CCc1cc(Br)cnc1C2(O)C1CCN(C(=O)Cc2cc[n+]([O-])cc2)CC1 (single isomer, unassigned; (-)) [Example 36, (−) 4-(3-Bromo-6,11-dihydro-11-hydroxy-10-bromo-8-methyl-5H-benzo[5,6]cyclohepta[1,2-b]pyridin-11-yl)-1-(4-pyridinylacetyl)piperidine N1-Oxide]
IC50: 5.4 nM

COc1cc(C)cc2c1C(C1CCN(C(=O)Cc3cc[n+]([O-])cc3)CC1)c1ncc(Br)cc1CC2 (single isomer, unassigned; (+)) [Example 24, (+)-4-(3-Bromo-10-methoxy-8-methyl-6,11-dihydro-5H-benzo[5,6]cyclohepta[1,2-b]pyridin-11-yl)-4-(4-pyridinylacetyl)piperidine N1-oxide, (+) enantiomer]
IC50: 3.6 nM

C=Cc1cnc2c(c1)CCc1cc(C)cc(OC)c1C2C1CCN(C(=O)Cc2cc[n+]([O-])cc2)CC1 (stereo not drawn) [Example 27, 4-(3-Ethenyl-6,11-dihydro-10-methoxy-8-methyl-5H-benzo[5,6]cyclohepta[1,2-b]pyridin-11-yl)-1-(4-pyridinylacetyl)piperidine N1-Oxide]
IC50: 59 nM

Cc1cc(Br)c2c(c1)CCc1cc(Br)cnc1C2=C1CCN(C(=O)Cc2cc[n+]([O-])cc2)CC1 [Example 37, -(3-Bromo-5,6-dihydro-10-bromo-8-methyl-11H-benzo[5,6]cyclohepta[1,2-b]pyridin-11-ylidene)-1-(4-pyridinylacetyl)piperidine N1-Oxide]
IC50: 5.4 nM

COc1cc(C)cc2c1C(C1CCN(C(=O)Cc3cc[n+]([O-])cc3)CC1)c1ncc(C3CC3)cc1CC2 (racemic) [Example 32]
IC50: > 200 nM

COc1cc(C)cc2c1C(N1CCN(C(=O)Cc3cc[n+]([O-])cc3)CC1)c1ncc(Br)cc1CC2 (racemic) [Example 10, (+,−)-1-(3-Bromo-10-methoxy-8-methyl-6,11-dihydro-5H-benzo[5,6]cyclohepta[1,2-b]pyridin-1 1-yl)-4-(4-pyridinylacetyl)piperazine N4-oxide]
IC50: 16 nM

CCc1cnc2c(c1)CCc1cc(C)cc(OC)c1C2C1CCN(C(=O)Cc2cc[n+]([O-])cc2)CC1 (stereo not drawn) [Example 29, 4-(3-Ethyl-6,11-dihydro-10-methoxy-8-methyl-5H-5 benzo[5,6]cyclohepta[1,2-b]pyridin-11-yl)-1-(4-pyridinylacetyl)piperidine, N1-Oxide]
IC50: 74 nM

COc1cc2c(c(OC)c1)C(N1CCN(C(=O)Cc3cc[n+]([O-])cc3)CC1)c1ncc(Br)cc1CC2 (stereo not drawn) [Example 1, 1-(3-Bromo-6,11-dihydro-8,10-dimethoxy-5H-benzo[5,6]cyclohepta[1,2-b]pyridin-11-yl)-4-(4-pyridinylacetyl)piperazine N4-oxide]
IC50: 67 nM

Cc1cc(Br)cc2c1C(N1CCN(C(=O)Cc3cc[n+]([O-])cc3)CC1)c1ncc(Br)cc1CC2 (racemic) [Example 22, (+,−)-1-(3,8-Dibromo-6,11-dihydro-10-methyl-5H-benzo[5,6]cyclohepta[1,2-b]pyridin-11-yl)-4-(4-pyridinylacetyl)piperazine N4-oxide]
IC50: 9.9 nM

COc1cc(C)c(Cl)c2c1C(=C1CCN(C(=O)Cc3cc[n+]([O-])cc3)CC1)c1ncccc1CC2 [Example 5, (+,−)-4-(7-Chloro-5,6-dihydro-8-methyl-10-methoxy-11H-benzo[5,6]cyclohepta[1,2-b]pyridin-11-ylidene)-1-(4-pyridinylacetyl)piperidine N1-oxide]
IC50: > 200 nM

Cc1cccc2c1CCc1cc(Br)cnc1C2N1CCN(C(=O)Cc2cc[n+]([O-])cc2)CC1 (racemic) [Example 14, (+,−)-1-(3-Bromo-7-methyl-6,11-dihydro-5H-benzo[5,6]cyclohepta[1,2-b]pyridin-11-yl)-4-(4-pyridinylacetyl)piperazine N4-oxide]
IC50: 110 nM

COc1cc(C)cc2c1C(C1CCN(C(=O)Cc3cc[n+]([O-])cc3)CC1)c1ncc(C)cc1CC2 (stereo not drawn) [Example 2, 4-(6,11-dihydro-10-methoxy-3,8-dimethyl-5H-benzo[5,6]cyclohepta[1,2-b]pyridin-11-yl)-1-(4-pyridinylacetyl)piperidine N1-15 oxide]
IC50: 34 nM

Cc1cc(Br)c2c(c1)CCc1cc(Br)cnc1C2C1CCN(C(=O)Cc2cc[n+]([O-])cc2)CC1 (single isomer, unassigned; (+)) [Example 33, (+) 4-(3-Bromo-6,11-dihydro-10-bromo-8-methyl-5H-benzo[5,6]cyclohepta[1,2-b]pyridin-11-yl)-1-(4-pyridinylacetyl)piperidine N1 -Oxide]
IC50: 1.2 nM

COc1cc(C)cc2c1C(C1CCN(C(=O)Cc3cc[n+]([O-])cc3)CC1)c1ncc(Br)cc1CC2 (single isomer, unassigned; (-)) [Example 25, (−)-4-(3-Bromo-10-methoxy-8-methyl-6,11-dihydro-5H-benzo[5,6]cyclohepta[1,2-b]pyridin-11-yl)-4-(4-pyridinylacetyl)piperidine N1-oxide, (−) enantiomer]
IC50: 220 nM
